Literature values, collected in patent US20060014732A1, “Use of targeted oxidative therapeutic formulation in treatment of burns” (priority 2004, published 2006).

How the values were obtained:
[1] = tested on: multiple-drug resistant strain of Staphylococcus aureus; details: growing culture of S. aureus, 8 hours, with or without illumination
[2] = tested on: peroxide-sensitive E. coli; details: infused into the blood
E. coli = details: increasing concentration of peroxide ex-vivo in rabbit or human blood

Compound | bactericidal effect in culture [1] | bactericidal effect [2] | direct bactericidal activity (E. coli)
CC1=C(CCC(=O)O)c2cc3nc(cc4[nH]c(cc4C)cc4[nH]c(cc1n2)cc4C)C(C)=C3CCC(=O)O [deuteroporphyrin] | strongly bactericidal only after photosensitization |  | 
OO [hydrogen peroxide, Hydrogen peroxide] |  | no bactericidal effect | no evidence of direct bactericidal activity
hemin | moderately bactericidal but light independent |  | 
